This is an account of results in US20110020801A1, “Carboxylesterase-1 Polymorphisms and Methods of Use Therefor” (priority 2007, published 2011).

The data set is described as follows: Pharmacokinetic study of orally administered racemic MPH in normal volunteers. The class given is in vivo, human. The conditions noted are these: human, plasma. Here is the method: Analysis of Pharmacokinetic, Hemodynamic, and Statistical Data. Standard pharmacokinetic analyses were applied to the MPH data using WinNonLin software (Pharsight, Mountainview, Calif.) and are described in a previous publication.^10 The AUC, Cmax, and t1/2 were analyzed using the Extreme Studentized Deviate (ESD) single-outlier procedure^12 to determine whether the parameter measurements for the slow metabolizer constituted true statistical outliers. For each parameter, the ESD procedure confirmed the measurement as an outlier at the p<0.01 level. Because this procedure is known to be conservative, the data from the aberrant metabolizer were reassessed using a similar procedure with respect to the normal participants only.

[1] abbreviates: mean ±SD of all other subjects, single oral 0.3 mg/kg racemic MPH.

Where two headings read alike, the source gives them in different places.

As a reminder, the AUC is the area under the concentration-time curve, a measure of exposure. The Cmax is the highest concentration seen after dosing. What is called Tmax is the time from dosing to the highest level. As usually defined, the AUC(0-inf) is the area under the concentration-time curve extrapolated to infinity. Low values mean less exposure, high ones more exposure. On to `COC(=O)[C@H](c1ccccc1)[C@H]1CCCCN1` [d-MPH, methylphenidate], for which the AUC is 78.6 ng·h/mL (oral, 0.3 mg/kg, Table 1, 19 study peers, read-out: AUC, Mean (±SD)) and 209 ng·h/mL (male, oral, 0.3 mg/kg, Table 1, aberrant metabolizer, read-out: AUC, Outlier). The Cmax worked out at 13.8 ng/mL (oral, 0.3 mg/kg, Table 1, 19 study peers, read-out: Cmax, Mean (±SD)); 15 ± 3 ng/mL (mean ±SD of all other subjects, single oral 0.3 mg/kg racemic MPH, read-out: Cmax); 36.7 ng/mL (male, oral, 0.3 mg/kg, Table 1, aberrant metabolizer, read-out: Cmax, Outlier); 37 ng/mL (male, slow metabolizer, single oral 0.3 mg/kg racemic MPH, read-out: Cmax). The half-life is, setting by setting: (oral, 0.3 mg/kg, Table 1, 19 study peers, read-out: t1/2, Mean (±SD) (converted)) 3 h; (mean ±SD of all other subjects, single oral 0.3 mg/kg racemic MPH, read-out: t1/2 (converted)) 2.8 ± 0.4 h; (male, oral, 0.3 mg/kg, Table 1, aberrant metabolizer, read-out: t1/2, Outlier (converted)) 5.4 h; (male, slow metabolizer, single oral 0.3 mg/kg racemic MPH, read-out: t1/2 (converted)) 5.4 h. Moreover, the Tmax by setting is: under setting [1], 2.3 ± 0.8 h; (male, slow metabolizer, single oral 0.3 mg/kg racemic MPH) 3 h. For the same compound, the AUC(0-inf) runs as follows: under setting [1], 83 ± 22 ng·h/mL; (male, slow metabolizer (heterozygous for p.Gly143Glu and p.Asp260fs), single oral 0.3 mg/kg racemic MPH) 209 ng·h/mL.
